Measured values: patent US20030224416A1, “Schizophrenia related gene” (priority 2002, published 2003)

Experiments:
Kv3.1 α-subunit mRNA = assay: Experiment 1: in situ hybridization of Kv3.1 α-subunit mRNA in brain, chronic PCP rat model of schizophrenia with antipsychotic co-treatment; assay type: in vivo; settings: for Kv3.1 α-subunit mRNA expression: PCP-Veh (PCP 2.24 mg/kg i.p.)
Kv3.1 mRNA = assay: Experiment 2: in situ hybridisation of Kv3.1 mRNA in rat brain after chronic intermittent PCP (YRING model); assay type: in vivo
Protocol: (§1) In a second experiment using different method for in situ hybridisation, the effect of chronic PCP treatment on Kv3.1, Kv3.2 and Kv3.3 mRNA were examined. […] Animals were treated according to the YRING model (FIG. 1) and killed by cervical dislocation 72 hours after the last exposure to PCP. The brains were stored at −70° C. until required.
(§2) 20 μm coronal sections were cut on a cryostat at −20° C. and collected onto poly-L-lysine coated slides. The sections were fixed, dehydrated and stored under ethanol at 4° C. until required. […] On the day of in situ hybridization, the sections from the chronic study were allowed to dry at room temperature then hybridized with the appropriate probe overnight at 42° C. The sections were then washed, dehydrated and air-dried before being exposed to x-ray film for 7-10 days.
(§3) The quantification of mRNA expression was carried out using computer-based densitometry (MCID 5). Bilateral relative optical density measurements were taken from duplicate sections from each animal (n=8-10 per treatment group for the chronic study). The results were analyzed using individual t-tests for each brain region. Statistical significance was defined as p<0.05, again after correction for multiple comparisons using the sequential Bonferroni correction factor.

Kv3.2 mRNA = assay: Experiment 2: in situ hybridisation of Kv3.2 mRNA in rat brain after chronic intermittent PCP (YRING model); assay type: in vivo
Protocol: as §1, §2, §3

Kv3.3 mRNA = assay: Experiment 2: in situ hybridisation of Kv3.3 mRNA in rat brain after chronic intermittent PCP (YRING model); assay type: in vivo
Protocol: as §1, §2, §3

schizophrenia = settings: patients; cited from earlier work
[1] = ventral part of the reticular thalamic nucleus

c1ccc(C2(N3CCCCC3)CCCCC2)cc1 [PCP, phencyclidine]
Kv3.1 α-subunit mRNA expression (Kv3.1 α-subunit mRNA; ACg): 15.01 PSL/mm^2 | Kv3.1 α-subunit mRNA expression (Kv3.1 α-subunit mRNA; AcbC): 8.48 PSL/mm^2 | Kv3.1 α-subunit mRNA expression (Kv3.1 α-subunit mRNA; AcbS): 10.62 PSL/mm^2 | Kv3.1 α-subunit mRNA expression (Kv3.1 α-subunit mRNA; Au1): 18.08 PSL/mm^2 | Kv3.1 α-subunit mRNA expression (Kv3.1 α-subunit mRNA; CA1pd): 15.90 PSL/mm^2 | Kv3.1 α-subunit mRNA expression (Kv3.1 α-subunit mRNA; CA2pd): 18.61 PSL/mm^2 | Kv3.1 α-subunit mRNA expression (Kv3.1 α-subunit mRNA; CA3pd): 32.94 PSL/mm^2 | Kv3.1 α-subunit mRNA expression (Kv3.1 α-subunit mRNA; DGgd): 38.63 PSL/mm^2 | Kv3.1 α-subunit mRNA expression (Kv3.1 α-subunit mRNA; DLStr): 5.87 PSL/mm^2 | Kv3.1 α-subunit mRNA expression (Kv3.1 α-subunit mRNA; IL): 12.28 PSL/mm^2 | Kv3.1 α-subunit mRNA expression (Kv3.1 α-subunit mRNA; IO): 16.48 PSL/mm^2 | Kv3.1 α-subunit mRNA expression (Kv3.1 α-subunit mRNA; M1): 15.88 PSL/mm^2 | Kv3.1 α-subunit mRNA expression (Kv3.1 α-subunit mRNA; M2): 14.38 PSL/mm^2 | Kv3.1 α-subunit mRNA expression (Kv3.1 α-subunit mRNA; MG): 26.93 PSL/mm^2 | Kv3.1 α-subunit mRNA expression (Kv3.1 α-subunit mRNA; MM): 24.34 PSL/mm^2 | Kv3.1 α-subunit mRNA expression (Kv3.1 α-subunit mRNA; Pir): 40.65 PSL/mm^2 | Kv3.1 α-subunit mRNA expression (Kv3.1 α-subunit mRNA; PrL): 9.83 PSL/mm^2 | Kv3.1 α-subunit mRNA expression (Kv3.1 α-subunit mRNA; RSa): 17.96 PSL/mm^2 | Kv3.1 α-subunit mRNA expression (Kv3.1 α-subunit mRNA; RSg): 20.38 PSL/mm^2 | Kv3.1 α-subunit mRNA expression (Kv3.1 α-subunit mRNA; SN): 12.82 PSL/mm^2 | Kv3.1 α-subunit mRNA expression (Kv3.1 α-subunit mRNA; VMStr): 6.15 PSL/mm^2 | Kv3.1 α-subunit mRNA expression (Kv3.1 α-subunit mRNA; VO): 19.85 PSL/mm^2 | Kv3.1 α-subunit mRNA expression (Kv3.1 α-subunit mRNA; dRt): 48.80 PSL/mm^2 | change in Kv3.1 α-subunit mRNA expression after chronic PCP treatment (Kv3.1 α-subunit mRNA; dorsal part of the reticular nucleus of the thalamus (dRt)): −15% | change in Kv3.1 α-subunit mRNA expression after chronic PCP treatment (Kv3.1 α-subunit mRNA; dorsolateral striatum (DLStr)): −16% | change in Kv3.1 α-subunit mRNA expression after chronic PCP treatment (Kv3.1 α-subunit mRNA; prelimbic region of the prefrontal cortex (PrL)): −31% | Kv3.1 α-subunit mRNA expression (Kv3.1 α-subunit mRNA; vRt): 45.07 PSL/mm^2 | change in Kv3.1 mRNA expression after chronic intermittent PCP (Kv3.1 mRNA; prelimbic cortex): −23% | Kv3.1 mRNA expression change after chronic intermittent PCP (Kv3.1 mRNA; regions other than prelimbic cortex and vRt): No other changes were observed in any other regions | change in Kv3.1 mRNA expression after chronic intermittent PCP (Kv3.1 mRNA; [1]): −19% | change in Kv3.2 mRNA expression after chronic intermittent PCP (Kv3.2 mRNA; anteromedial thalamic nucleus): −9% | change in Kv3.2 mRNA expression after chronic intermittent PCP (Kv3.2 mRNA; prelimbic cortex): +16% | change in Kv3.2 mRNA expression after chronic intermittent PCP (Kv3.2 mRNA; primary motor cortex): +13% | Kv3.2 mRNA expression change after chronic intermittent PCP (Kv3.2 mRNA; regions other than prelimbic cortex, primary motor cortex, anteromedial thalamic nucleus): No significant changes were observed | change in Kv3.3 mRNA expression after chronic intermittent PCP (Kv3.3 mRNA; anterodorsal thalamic nucleus): +21% | change in Kv3.3 mRNA expression after chronic intermittent PCP (Kv3.3 mRNA; prelimbic cortex): +18% | Kv3.3 mRNA expression change after chronic intermittent PCP (Kv3.3 mRNA; regions other than prelimbic, ventral orbital cortex, AD, vRt): No other changes were observed in any other regions | change in Kv3.3 mRNA expression after chronic intermittent PCP (Kv3.3 mRNA; ventral orbital cortex): +14% | change in Kv3.3 mRNA expression after chronic intermittent PCP (Kv3.3 mRNA; [1]): +33%

O=C(CCCN1CCC(O)(c2ccc(Cl)cc2)CC1)c1ccc(F)cc1 [haloperidol]
action against the negative symptoms and cognitive dysfunction of schizophrenia (schizophrenia): ineffective | attenuating the positive symptoms of schizophrenia (schizophrenia): effective
